Experimental data: PubChem BioAssay AID2005 (Sanford-Burnham Center for Chemical Genomics, 2009)

How the values were obtained:
[1] = compounds lowering EGFP fluorescence in F442A cells, dose response, counter-screen for p/CIP destabilizer project (AID 2005); conditions: F442A EGFP cells, EGFP fluorescence, 16 h; EGFP decrease; at 10 µM; stronger effect = higher value;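 note: cells express EGFP alone from a CMV promoter as a counter screen for p/CIP-EGFP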
[2] = test system: F442A EGFP cells, EGFP fluorescence, 16 h; assay: as above

SMILES | inhibition [1] [%] | IC50 [2] [µM]
CCOC(=O)N=Nc1c2ccccc2c2nc3no[nH]c3nc12 | -20.6 | 35.5
O=C1C(Nc2ccccc2)=C/C(=N/S(=O)(=O)c2cccs2)c2ccccc21 | 62.1 | 10.4
O=C1C(Cl)=C(NCCN2CCCCC2)C(=O)c2ccccc21 | 16.1 | 20.4
